According to patent publication US4092420A, “Novel soft N-chloroamino alcohol derivatives exhibiting antibacterial activity” (INTERx Research Corporation, priority 1977, dated 1978):

Columns and labels:
S. pyogenes = assay: Minimal inhibitory concentration (MIC), Example V; format: cell-based; conditions: Streptococcus pyogenes
A. niger = assay: Minimal inhibitory concentration (MIC), Example V; format: cell-based; conditions: Aspergillus niger
Source text: (§1) MINIMAL INHIBITORY CONCENTRATION OF 2-AMINO-2-METHYL-1-PROPYL
(§2) ^a Minimal inhibitory concentration expressed in parts per million
(§3) sequence inhibited the test organism at the higher concentrations.
(§4) THE ANTIBACTERIAL SCREEN - EXAMPLE V

E. coli = assay: Minimal inhibitory concentration (MIC), Example V; format: cell-based; conditions: Escherichia coli
Source text: as §1, §2, §3, §4

T. mentagrophytes = assay: Minimal inhibitory concentration (MIC), Example V; format: cell-based; conditions: Trichophyton mentagrophytes
Source text: as §1, §2, §3, §4

S. epidermidis = assay: Contact germicidal efficiency (sterilization time); format: cell-based, Staphylococcus epidermidis; conditions: S. epidermidis
Experimental: (§5) CONTACT GERMICIDAL EFFICIENCY OF N-CHLORAMINES AS A FUNCTION
(§6) ^a Time intervals screened 0.5, 1, 2, 3, 4 and 5 minutes.
(§7) ^a Time intervals screened 0.5, 1, 2, 3, 4, 5, 6, 7, 8, 9 and 10
(§8) ^a Time intervals screened 0.5, 1, 2, 3, 4, and 5 minutes.
(§9) ^b Time intervals screened 0.5, 1, 2, 3, 4, 5, 6, 7, 8, 9 and 10
(§10) Immediately preceding the screen, the compound is weighed and diluted with a buffer or other solvent to give the final concentration desired. The buffer or solvent chosen depends on the conditions of the screen and could be one of the following: 0.1 M NaOAc, pH 4.6; 0.1 M NaH2 PO4, pH 7.0; 0.1 M Na2 B4 O7, pH 8.8; 35% methanol in one of the aforementioned buffers; 10% Triton × 100 in buffer, etc.
(§11) The positive chlorine concentration of the test solution is then determined iodometrically.
(§12) Media used for the Screen are Nutrient Broth, BBL# 11479 and Nutrient Agar, BBL# 11472 prepared according to label directions. The broth is dispensed in 75 ml amounts of flasks for overnight cultures and in 5 ml amounts to culture tubes for subculturing during the Screen. Agar plates are prepared as usual.
(§13) Overnight cultures are prepared by inoculating from stock cultures into the 75 ml flasks of nutrient broth and incubating for 15 hours at 37° C.
(§14) The iodometrically characterized test solution is dispensed in 5 ml amounts to seven small stoppered flasks. The organisms are screened one at a time as follows:
(§15) A 0.2 ml portion of the overnight culture is inoculated into 5 ml of 0.9% NaCl for use in controls. A 0.2 ml portion of the overnight culture is inoculated into a flask containing 5 ml of the test solution, an automatic timer is simultaneously triggered and the solution mixed. At time intervals of 30 seconds, 1, 2, 3, 4, 5, 6, 7, 8, 9, and 10 minutes a loopful of the inoculated solution is subcultured into 5 ml of sterile nutrient broth and mixed by a Vortex Genie Mixer, the high dilution serving to stop the action of the compound. At the end of the ten minute screen, the entire procedure is repeated for each of the remaining six organisms. All of the subculture tubes are incubated at 37° C and checked for signs of growth by turbidity at 24 hr., 48 hr., 3, 5, and 7 days. The earliest subculture time at which no growth is present in the subculture tube is considered the endpoint and is recorded as that time, e.g., 7 minutes.
(§16) The test solution is prepared and characterized as above but is made up at twice the concentration desired. The solution is diluted 1:1 with Rehydrated Tissue Culture Dessicated Horse Serum, Difco #5357-72 and dispensed in a 5 ml amount to a small flask. The mixture is incubated at Room Temperature for 30 minutes to allow denaturation of the compound by the serum and then screened as above.
(§17) The 5 ml mixture of serum and test solution are prepared in sequence to allow as close to 30 minutes as possible before the beginning of the screen of each organism.
(§18) Bacteria: Staphylococcus aureas Smith (or 209), Escherichia coli AB 1932-1, 1100/B22 and Vogel, Streptococcus pyogenes C203 Salmonella typhimurium 14028, Bacillus subtilis 6051-1, Klebsiella pneumoniae 10031, Pseudomonas aeruginosa 9027, Bordetella bronchiseptica 4617 and Staphylococcus epidermidis 12228.

K. pneumoniae = assay: Contact germicidal efficiency (sterilization time); format: cell-based, Klebsiella pneumoniae
Experimental: as §5, §6, §7, §8, §9, §10, §11, §12, §13, §14, §15, §16, §17, §18

P. aeruginosa = assay: Contact germicidal efficiency (sterilization time); format: cell-based, Pseudomonas aeruginosa
Experimental: as §5, §6, §7, §8, §9, §10, §11, §12, §13, §14, §15, §16, §17, §18

[1] = Example X, pH 4.6, no horse serum, IV c 404 ppm (69 PPMCl+), IV g 489 ppm (143 PPMCl+)
[2] = Example X, pH 7.0, no horse serum, IV c 1886 ppm (323 PPMCl+), IV g 409 ppm (120 PPMCl+)
[3] = Example X, pH 9.3, no horse serum, IV c 1704 ppm (292 PPMCl+), IV g 319 ppm (94 PPMCl+)
[4] = Example Y, pH 4.6, in presence of horse serum, 468 ppm (80 PPMCl+)

CC(C)(COC(=O)C(C)(C)C)NCl [IV c, 2-N-Chloroamino-2-methyl-1-propyl 2,2-dimethylproprionate] gave an MIC (S. pyogenes) greater than 125 µg/mL, an MIC (A. niger) greater than 250 µg/mL and an MIC (E. coli) greater than 250 µg/mL. For the same compound, the MIC (T. mentagrophytes) was greater than 250 µg/mL, the “Sterilization Time” value (S. epidermidis; [1]) was 0.5 min and the “Sterilization Time” value (S. epidermidis; [2]) was 3 min. The “Sterilization Time” value (S. epidermidis; [3]) was 4 min, the “Sterilization Time” value (S. epidermidis; [4]) was greater than 10 min and the “Sterilization Time” value (K. pneumoniae; [1]) was 0.5 min. The “Sterilization Time” value (K. pneumoniae; [2]) was 2 min, the “Sterilization Time” value (K. pneumoniae; [3]) was 2 min and the “Sterilization Time” value (K. pneumoniae; [4]) was greater than 10 min. The “Sterilization Time” value (P. aeruginosa; [1]) was 0.5 min, the “Sterilization Time” value (P. aeruginosa; [2]) was 1 min and the “Sterilization Time” value (P. aeruginosa; [3]) was 1 min. The “Sterilization Time” value (P. aeruginosa; [4]) was greater than 10 min.
